Measurements reported in patent US20250282776A1, “Bicyclic TLR7 Agonists and Uses Thereof” (Bristol-Myers Squibb Company, priority 2024, published 2025).

Columns and labels:
human TLR8 (hTLR8) = biological target: T1, human TLR8 (hTLR8) (Homo sapiens, UniProt Q9NR97); experiment: Human TLR8 agonist activity assay (measured in a similar manner); format: cell-based; settings: HEK-Blue TLR cells, SEAP reporter, measured in a similar manner to TLR7; some values average of multiple measurements
T1 construct: expressed in transfected cells
T1 sequence (Q9NR97 27-1041): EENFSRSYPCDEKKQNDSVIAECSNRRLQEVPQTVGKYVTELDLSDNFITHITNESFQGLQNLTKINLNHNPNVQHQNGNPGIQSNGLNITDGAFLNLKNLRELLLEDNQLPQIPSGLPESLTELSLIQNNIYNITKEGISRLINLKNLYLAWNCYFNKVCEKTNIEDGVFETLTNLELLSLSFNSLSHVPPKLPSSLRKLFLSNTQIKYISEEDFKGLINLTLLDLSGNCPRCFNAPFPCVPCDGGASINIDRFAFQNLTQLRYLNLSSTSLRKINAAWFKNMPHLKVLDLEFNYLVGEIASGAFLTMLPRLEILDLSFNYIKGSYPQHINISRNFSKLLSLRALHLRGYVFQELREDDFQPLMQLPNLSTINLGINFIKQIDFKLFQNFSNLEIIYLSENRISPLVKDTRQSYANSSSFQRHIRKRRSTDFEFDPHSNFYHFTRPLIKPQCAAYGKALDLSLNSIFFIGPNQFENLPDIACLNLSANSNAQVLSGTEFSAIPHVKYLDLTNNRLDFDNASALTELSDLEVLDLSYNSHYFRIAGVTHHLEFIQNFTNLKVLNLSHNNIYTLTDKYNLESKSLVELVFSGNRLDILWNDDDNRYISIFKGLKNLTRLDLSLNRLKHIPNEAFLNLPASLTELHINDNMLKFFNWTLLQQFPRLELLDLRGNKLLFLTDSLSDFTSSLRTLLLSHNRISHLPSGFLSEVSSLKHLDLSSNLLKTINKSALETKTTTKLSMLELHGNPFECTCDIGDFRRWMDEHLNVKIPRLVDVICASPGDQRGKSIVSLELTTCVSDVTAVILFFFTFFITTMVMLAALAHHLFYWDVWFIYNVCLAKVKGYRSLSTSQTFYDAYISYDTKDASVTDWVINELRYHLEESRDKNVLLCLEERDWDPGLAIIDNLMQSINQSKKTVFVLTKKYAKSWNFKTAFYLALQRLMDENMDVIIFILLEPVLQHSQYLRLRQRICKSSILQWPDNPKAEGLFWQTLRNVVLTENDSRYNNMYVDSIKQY
Procedure: (§1) This procedure describes a method for assaying human TLR7 (hTLR7) and human TLR8 (hTLR8) agonist activity of the compounds disclosed herein.
HEK-Blue™ TLR7 cells were added to each well of a 384-well tissue-culture plate (15,000 cells per well) and incubated 16-18 h at 37° C., 5% CO2. Compounds (100 nL) were dispensed into wells containing the HEK-Blue™ TLR cells and the treated cells were incubated at 37° C., 5% CO2. After 18 h, ten microliters 5 of freshly prepared Quanti-Blue™ reagent (Invivogen) was added to each well and incubated for 30 min (37° C., […]). SLAP levels were measured using an Envision plate reader (OD=620 nm). […] Some of the reported activities were the average of multiple measurements.
TLR8 activity was measured in a similar manner.

human TLR7 (hTLR7) = biological target: T2, human TLR7 (hTLR7) (Homo sapiens, UniProt Q9NYK1); experiment: Human TLR7 agonist activity assay (HEK-Blue TLR7 SEAP reporter); format: cell-based; settings: HEK-Blue TLR7 cells, 18 h incubation, Quanti-Blue, OD 620 nm, some values average of multiple measurements
T2 construct: host or cells: HEK-Blue TLR7 cells (engineered human embryonic kidney cells)
T2 sequence (Q9NYK1 27-1049): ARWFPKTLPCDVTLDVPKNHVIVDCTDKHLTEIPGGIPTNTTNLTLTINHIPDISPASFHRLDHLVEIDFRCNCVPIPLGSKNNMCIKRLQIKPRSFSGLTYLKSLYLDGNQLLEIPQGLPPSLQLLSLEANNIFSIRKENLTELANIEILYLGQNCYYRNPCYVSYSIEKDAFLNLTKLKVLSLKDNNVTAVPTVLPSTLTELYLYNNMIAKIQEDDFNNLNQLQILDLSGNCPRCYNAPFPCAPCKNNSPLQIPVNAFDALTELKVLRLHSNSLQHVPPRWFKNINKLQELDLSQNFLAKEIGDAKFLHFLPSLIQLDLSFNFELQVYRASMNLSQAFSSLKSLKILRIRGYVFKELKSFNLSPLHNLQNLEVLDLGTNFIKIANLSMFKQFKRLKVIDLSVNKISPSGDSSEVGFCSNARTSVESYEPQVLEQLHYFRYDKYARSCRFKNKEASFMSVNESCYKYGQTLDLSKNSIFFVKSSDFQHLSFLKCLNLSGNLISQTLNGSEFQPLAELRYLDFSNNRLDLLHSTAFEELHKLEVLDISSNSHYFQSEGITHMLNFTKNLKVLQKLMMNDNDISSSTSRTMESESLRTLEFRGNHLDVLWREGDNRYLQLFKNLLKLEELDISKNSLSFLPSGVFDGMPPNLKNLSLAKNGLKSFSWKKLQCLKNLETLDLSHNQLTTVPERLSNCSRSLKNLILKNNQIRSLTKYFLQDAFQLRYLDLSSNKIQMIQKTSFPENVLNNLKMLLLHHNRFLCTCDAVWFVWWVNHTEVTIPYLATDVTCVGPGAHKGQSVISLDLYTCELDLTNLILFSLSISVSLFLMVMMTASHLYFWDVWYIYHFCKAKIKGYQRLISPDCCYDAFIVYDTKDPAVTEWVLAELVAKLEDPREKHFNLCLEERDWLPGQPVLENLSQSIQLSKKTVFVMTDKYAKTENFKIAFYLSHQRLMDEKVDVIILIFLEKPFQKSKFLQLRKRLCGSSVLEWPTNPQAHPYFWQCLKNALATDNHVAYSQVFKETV
Procedure: as §1
HEK-Blue™ TLR7 cells were added to each well of a 384-well tissue-culture plate (15,000 cells per well) and incubated 16-18 h at 37° C., 5% CO2. Compounds (100 nL) were dispensed into wells containing the HEK-Blue™ TLR cells and the treated cells were incubated at 37° C., 5% CO2. After 18 h, ten microliters 5 of freshly prepared Quanti-Blue™ reagent (Invivogen) was added to each well and incubated for 30 min (37° C., […]). SLAP levels were measured using an Envision plate reader (OD=620 nm). The half maximal effective concentration values (ECSO; compound concentration which induced a response halfway between the assay baseline and maximum) were calculated. Some of the reported activities were the average of multiple measurements.

Row | Structure (SMILES) | EC50 (human TLR8 (hTLR8)) [µM] | EC50 (human TLR7 (hTLR7)) [µM]
1 | CCCCN(CCO)c1nc(N)nc2cn(Cc3ccc(CN[C@@H]4CCOC4)cc3OC)nc12 [Compound 53] | 0.486 | 0.731
2 | CCCCN(CCO)c1nc(N)nc2cn(Cc3ccc(CN[C@@H]4COC[C@@H]4F)cc3OC)nc12 [Compound 54] | 1.5 | 1.33
3 | CCCCN(CCO)c1nc(N)nc2cn(Cc3ccc(CN4CCCNCC4)cc3OC)nc12 [Compound 55] | 2.03 | 0.349
4 | CCCCN(CCO)c1nc(N)nc2cn(Cc3ccc(CN[C@H]4CCN(C(C)C)C4)cc3OC)nc12 [Compound 56] | 2.31 | 1.7
5 | CCCCCNCc1ccc(Cn2cc3nc(N)nc(N(CCO)CCCC)c3n2)c2ncccc12 [Compound 57] | 1.39 | 2
6 | CCCCN(CCO)c1nc(N)nc2cn(Cc3ccc(CNC4CCOCC4)c4cccnc34)nc12 [Compound 58] | 0.488 | 0.757
7 | CCCCN(CCO)c1nc(N)nc2cn(Cc3ccc(CNCCCCO)c4cccnc34)nc12 [Compound 59] | 1.14 | 1.55
8 | CCCCN(CCO)c1nc(N)nc2cn(Cc3ccc(CN4CCN(C5CCC5)CC4)c4cccnc34)nc12 [Compound 60] | 0.469 | 0.326
9 | CCCCN(CCO)c1nc(N)nc2cn(Cc3ccc(CNC4CCCC4)c4cccnc34)nc12 [Compound 61] | 0.952 | 1.5
10 | CCCCN(CCO)c1nc(N)nc2cn(Cc3ccc(CN4CC(CCO)C4)c4cccnc34)nc12 [Compound 62] | 0.675 | 1.31
11 | CCCCN(CCO)c1nc(N)nc2cn(Cc3ccc(CNCCCC4CC4)c4cccnc34)nc12 [Compound 63] | 0.736 | 0.915
12 | CCCCN(CCO)c1nc(N)nc2cn(Cc3ccc(CNC4CC(F)(F)C4)c4cccnc34)nc12 [Compound 64] | 1.55 | 2.11
13 | CCCCN(CCO)c1nc(N)nc2cn(Cc3ccc(CNC4CCN(C)CC4)c4cccnc34)nc12 [Compound 65] | 2.38 | 2.09
14 | CCCCN(CCO)c1nc(N)nc2cn(Cc3ccc(CNC4CCN(CCOC)CC4)c4cccnc34)nc12 [Compound 66] | 2.13 | 1.59
15 | CCCCN(c1nc(N)nc2cn(Cc3ccc(CN[C@@H]4CCOC4)cc3OC)nc12)C(C)CO (stereo partly drawn) [Compound 68] | 1.32 | 0.349
16 | CCCCCN(CCO)c1nc(N)nc2cn(Cc3ccc(CN[C@@H]4CCOC4)cc3OC)nc12 [Compound 70] | 1.06 | 1.05
17 | CCCCN(CCOC)c1nc(N)nc2cn(Cc3ccc(CN[C@@H]4CCOC4)cc3OC)nc12 [Compound 71] | 1.88 | 0.621
18 | CCCCN(CCO)c1nc(N)nc2cn(Cc3c(F)cc(CNCCO)cc3OC)nc12 [Compound 72] | 0.835 | 0.738

Row | Structure (SMILES) | EC50 (human TLR8 (hTLR8)) [µM] | EC50 (human TLR7 (hTLR7)) [µM]
19 | CCCCN(CCO)c1nc(N)nc2cn(Cc3c(F)cc(CNCCOC)cc3OC)nc12 [Compound 73] | 0.593 | 0.32
20 | CCCCN(CCO)c1nc(N)nc2cn(Cc3c(F)cc(CNC4CCOCC4)cc3OC)nc12 [Compound 74] | 1.28 | 0.741
21 | CCCCN(CCO)c1nc(N)nc2cn(Cc3c(F)cc(CN[C@@H]4CCOC4)cc3OC)nc12 [Compound 75] | 0.67 | 0.37
22 | CCCCN(CCO)c1nc(N)nc2cn(Cc3c(F)cc(CNCC(C)(C)C)cc3OC)nc12 [Compound 80] | 1.62 | 1.41
23 | CCCCN(CCO)c1nc(N)nc2cn(Cc3c(F)cc(CNCC(C)(C)O)cc3OC)nc12 [Compound 81] | 1.43 | 1
24 | CCCCN(CCO)c1nc(N)nc2cn(Cc3c(F)cc(CN4CC5(COC5)C4)cc3OC)nc12 [Compound 83] | 2.26 | 0.511
25 | CCCCN(CCO)c1nc(N)nc2cn(Cc3c(F)cc(CN4CC(OC)C4)cc3OC)nc12 [Compound 84] | 0.497 | 0.199
26 | CCCCN(CCO)c1nc(N)nc2cn(Cc3ccc(CN[C@@H]4CCOC4)cc3OC)nc12 [Compound 85] | 1.97 | 0.148
27 | CCCCN(c1nc(N)nc2cn(Cc3ccc(CN[C@@H]4CCOC4)cc3OC)nc12)C(C)CO (stereo partly drawn) [Compound 86] | 0.311 | 0.229
28 | CCCCN(CCO)c1nc(N)nc2cn(Cc3ccc(CNC4(C)CCOCC4)cc3OC)nc12 [Compound 88, 2-((5-Amino-2-(2-methoxy-4-(((4-methyltetrahydro-2H-pyran-4-yl)amino)methyl)benzyl)-2H-pyrazolo[4,3-d]pyrimidin-7-yl)(butyl)amino)ethan-1-ol] | 0.535 | 0.805
29 | CCCCN(CCO)c1nc(N)nc2cn(Cc3ccc(CNC4(C)CC4)cc3OC)nc12 [Compound 89] | 0.961 | 1.55
30 | CCCCN(CCO)c1nc(N)nc2cn(Cc3cccc4c3OCCN4C(=O)CN(C)C)nc12 [Compound 90] | 2.41 | 2.15
31 | CCCCN(CCO)c1nc(N)nc2cn(Cc3c(F)cc(CNC4(CO)CC4)cc3OC)nc12 [Compound 91] | 2.08 | 1.22
32 | CCCCN(CCO)c1nc(N)nc2cn(Cc3c(F)cc(CNCC4(CO)CC4)cc3OC)nc12 [Compound 92] | 2.11 | 1.33
33 | CCCCN(CCO)c1nc(N)nc2cn(Cc3c(F)cc(CN[C@H]4CC[C@H](O)CC4)cc3OC)nc12 [Compound 93] | 1.91 | 2.58
34 | CCCCN(CCO)c1nc(N)nc2cn(Cc3c(F)cc(CN[C@H]4C[C@H](O)C4)cc3OC)nc12 [Compound 94] | 2.66 | 1.5
35 | CCCCN(CCO)c1nc(N)nc2cn(Cc3c(F)cc(CN[C@@H]4COC[C@@H]4O)cc3OC)nc12 [Compound 95] | 2.5 | 1.24
36 | CCCCN(CCO)c1nc(N)nc2cn(Cc3c(F)cc(N4CCC(N[C@@H]5CCOC5)CC4)cc3F)nc12 [Compound 96] | 1.99 | 0.54
